In the experiment the test system is L1210 leukemia ip in BDF1 mice, survival T/C. Nature of the experiment: NCI In Vivo Anticancer Drug Screen. Data for tumor model L1210 Leukemia (intraperitoneal) in B6D2F1 (BDF1) mice. As to conditions: endpoint: mean survival time, higher = longer survival. The gist of the method: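 Tumor cells were implanted, animals were treated, and survival was followed. The result divides the treated measurement by the vehicle-control measurement.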

Setting [1] is: dose: 100.0 mg/kg/injection, schedule: Q04DX003 (ip), vehicle: saline.
Setting [2] is: dose: 200.0 mg/kg/injection, schedule: Q04DX003 (ip), vehicle: saline.
Setting [3] is: dose: 400.0 mg/kg/injection, schedule: Q04DX003 (ip), vehicle: saline.
The mark [4] stands for this setting: dose: 100.0 mg/kg/injection, schedule: Q01DX009 (ip), vehicle: Klucel (hydroxypropylcellulose) (HPC).
[5] abbreviates: dose: 100.0 mg/kg/injection, schedule: Q04DX003 (ip), vehicle: Klucel (hydroxypropylcellulose) (HPC).
Setting [6] is: dose: 200.0 mg/kg/injection, schedule: Q01DX009 (ip), vehicle: Klucel (hydroxypropylcellulose) (HPC).
The mark [7] stands for this setting: dose: 200.0 mg/kg/injection, schedule: Q04DX003 (ip), vehicle: Klucel (hydroxypropylcellulose) (HPC).
Where [8] appears, read: dose: 400.0 mg/kg/injection, schedule: Q01DX009 (ip), vehicle: Klucel (hydroxypropylcellulose) (HPC).
The mark [9] stands for this setting: dose: 400.0 mg/kg/injection, schedule: Q04DX003 (ip), vehicle: Klucel (hydroxypropylcellulose) (HPC).
Where [10] appears, read: dose: 100.0 mg/kg/injection, schedule: Q01DX001 (ip), vehicle: saline.
Setting [11] is: dose: 200.0 mg/kg/injection, schedule: Q01DX001 (ip), vehicle: saline.
[12] abbreviates: dose: 100.0 mg/kg/injection, schedule: Q01DX001 (ip), vehicle: Klucel (hydroxypropylcellulose) (HPC).
Where [13] appears, read: dose: 200.0 mg/kg/injection, schedule: Q01DX001 (ip), vehicle: Klucel (hydroxypropylcellulose) (HPC).
Setting [14] is: dose: 400.0 mg/kg/injection, schedule: Q01DX001 (ip), vehicle: Klucel (hydroxypropylcellulose) (HPC).
The mark [15] stands for this setting: dose: 100.0 mg/kg/injection, schedule: Q01DX001 (ip), vehicle: carboxymethylcellulose (CMC).
Where [16] appears, read: dose: 200.0 mg/kg/injection, schedule: Q01DX001 (ip), vehicle: carboxymethylcellulose (CMC).
Where [17] appears, read: dose: 400.0 mg/kg/injection, schedule: Q01DX001 (ip), vehicle: carboxymethylcellulose (CMC).
Setting [18] is: dose: 100.0 mg/kg/injection, schedule: Q04DX003 (ip), vehicle: saline with Tween-80.
Setting [19] is: dose: 200.0 mg/kg/injection, schedule: Q04DX003 (ip), vehicle: saline with Tween-80.
Where [20] appears, read: dose: 400.0 mg/kg/injection, schedule: Q04DX003 (ip), vehicle: saline with Tween-80.
[21] abbreviates: dose: 100.0 mg/kg/injection, schedule: Q01DX009 (ip), vehicle: saline with Tween-80.
Setting [22] is: dose: 200.0 mg/kg/injection, schedule: Q01DX009 (ip), vehicle: saline with Tween-80.
The mark [23] stands for this setting: dose: 400.0 mg/kg/injection, schedule: Q01DX009 (ip), vehicle: saline with Tween-80.

Several values for one entry are separate records, joined by “and”; a condition that tells them apart may be missing. Equal entries are not always repeated. Toxic doses and inconclusive results are not listed.

Turning to `CC(=O)CC(=O)NCc1cccnc1`, the T/C (dose: 50.0 mg/kg/injection, schedule: Q04DX003 (ip), vehicle: saline) was 106 % of control; the T/C (dose: 100.0 mg/kg/injection, schedule: Q01DX009 (ip), vehicle: saline) is 93 % of control; the T/C under setting [1] is 97 % of control; the T/C (dose: 200.0 mg/kg/injection, schedule: Q01DX009 (ip), vehicle: saline) is 104 % of control; the T/C under setting [2] is 94 % of control and 100 % of control; the T/C (dose: 400.0 mg/kg/injection, schedule: Q01DX009 (ip), vehicle: saline) was 98 % of control. The T/C under setting [3] is 96 % of control.
Consider `CN(C(=O)N(C)c1ccccc1)c1ccccc1`, for which the T/C is 102 % of control under setting [4]; 103 % of control under setting [5]; 96 % of control under setting [6]; 103 % of control under setting [7]; 95 % of control under setting [8]; 103 % of control under setting [9].
With `O=S(=O)(c1ccc(NC(=S)Oc2ccccc2)cc1)c1ccc(NC(=S)Oc2ccccc2)cc1`, the T/C under setting [10] was 104 % of control and the T/C under setting [11] was 104 % of control.
For the molecule `CN1C(C(=O)c2ccc(-c3ccccc3)cc2)C1c1ccccc1` (centres undefined), the T/C under setting [12] is 93 % of control, the T/C under setting [13] is 97 % of control and the T/C under setting [14] was 110 % of control.
Regarding `O=C(O)c1cc2ccc(O)cc2oc1=O`, the T/C by setting is: under setting [15], 94 % of control; under setting [16], 94 % of control; under setting [17], 97 % of control.
For `CC(=O)SC1CS(=O)(=O)CC1SC(C)=O` (centres undefined), the T/C under setting [5] is 93 % of control and the T/C under setting [7] is 101 % of control.
Regarding `O=c1oc(-c2ccco2)nc2ccccc12`, the T/C is, setting by setting: under setting [4], 101 % of control; under setting [5], 102 % of control; under setting [6], 110 % of control; under setting [7], 95 % of control; under setting [9], 93 % of control.
In the case of `COC(=O)Cc1ccc([N+](=O)[O-])cc1`, the T/C was 94 % of control under setting [15], 91 % of control under setting [16] and 88 % of control under setting [17].
`CC(C)(C)N1CC(C(=O)c2ccc3ccccc3c2)C1c1ccccc1` (centres undefined): the T/C was 93 % of control under setting [18], 98 % of control under setting [19] and 88 % of control under setting [20].
For the molecule `c1ccc2c(c1)cc1ncc3cccc4ccc2c1c43`, the T/C was 88 % of control under setting [18], 102 % of control under setting [19] and 88 % of control under setting [20].
With `COC(=O)c1cn2c(c1C(=O)OC)CCC2`, the T/C reads like this: (dose: 12.5 mg/kg/injection, schedule: Q01DX009 (ip), vehicle: other) 93 % of control; (dose: 25.0 mg/kg/injection, schedule: Q01DX009 (ip), vehicle: other) 96 % of control; (dose: 50.0 mg/kg/injection, schedule: Q01DX009 (ip), vehicle: other) 222 % of control; (dose: 59.0 mg/kg/injection, schedule: Q01DX009 (ip), vehicle: other) 94 % of control and 113 % of control; (dose: 89.0 mg/kg/injection, schedule: Q01DX009 (ip), vehicle: other) 99 % of control and 102 % of control; (dose: 100.0 mg/kg/injection, schedule: Q01DX009 (ip), vehicle: other) 459 % of control. In addition, the T/C is, setting by setting: (dose: 133.0 mg/kg/injection, schedule: Q01DX009 (ip), vehicle: other) 93 % of control and 106 % of control; (dose: 300.0 mg/kg/injection, schedule: Q01DX009 (ip), vehicle: other) 116 % of control.
On to `CCCCn1c(=O)cc(C)c2ccccc21`, for which the T/C was 95 % of control (dose: 100.0 mg/kg/injection, schedule: Q01DX001 (ip), vehicle: other); 92 % of control (dose: 200.0 mg/kg/injection, schedule: Q01DX001 (ip), vehicle: other); 94 % of control (dose: 400.0 mg/kg/injection, schedule: Q01DX001 (ip), vehicle: other).
For `OCNC(=S)SSC(=S)NCO`, the T/C reads like this: under setting [1], 96 % of control; under setting [2], 98 % of control; under setting [3], 98 % of control.
Consider `CC1Oc2ccccc2OC1CN1CCC2(CC1)C(=O)N(C)CN2c1ccccc1` (centres undefined), for which the T/C is 88 % of control under setting [12], 99 % of control under setting [13] and 86 % of control under setting [14].
With `CCOC(=O)Cc1cc(=O)[nH][nH]c1=O`, the T/C (dose: 150.0 mg/kg/injection, schedule: Q04DX002 (ip), vehicle: Klucel (hydroxypropylcellulose) (HPC)) was 95 % of control and the T/C (dose: 300.0 mg/kg/injection, schedule: Q04DX002 (ip), vehicle: Klucel (hydroxypropylcellulose) (HPC)) was 95 % of control.
Regarding `O=C(O)c1cccc2ccccc12`, the T/C by setting is: under setting [21], 89 % of control; under setting [22], 100 % of control.
Take `Cc1c(NC(=O)Nc2ccccc2C(F)(F)F)c(=O)n(-c2ccccc2)n1C`: the T/C reads like this: under setting [21], 104 % of control; under setting [22], 98 % of control; under setting [23], 91 % of control.
With `O=C(CN1C(=O)c2ccccc2C1=O)c1cccc(Br)c1`, the T/C was 95 % of control under setting [10]; 104 % of control under setting [11]; 103 % of control (dose: 400.0 mg/kg/injection, schedule: Q01DX001 (ip), vehicle: saline).
As for `O=C(O)c1cc(O)ccc1O`, the T/C under setting [18] is 100 % of control and the T/C under setting [19] was 97 % of control.
Regarding `Nc1ncnc(N)c1NC(=O)c1cc(OCc2ccccc2)cc(OCc2ccccc2)c1`, the T/C is 94 % of control (dose: 100.0 mg/kg/injection, schedule: Q04DX003 (ip), vehicle: DMSO); 102 % of control (dose: 200.0 mg/kg/injection, schedule: Q04DX003 (ip), vehicle: DMSO); 86 % of control (dose: 400.0 mg/kg/injection, schedule: Q04DX003 (ip), vehicle: DMSO).
For `O=C(Nc1cccc(F)c1)N(Cc1ccccc1)Cc1ccccc1`, the T/C under setting [4] was 92 % of control, the T/C under setting [6] is 102 % of control and the T/C under setting [8] is 97 % of control.
For the molecule `COc1ccc(C2=C(Br)C(=O)C(c3ccc(OC)cc3)=C(Br)C2=O)cc1`, the T/C was 94 % of control under setting [5], 96 % of control under setting [7] and 98 % of control under setting [9].
As for `ON1CCCC1`, the T/C was 95 % of control (dose: 100.0 mg/kg/injection, schedule: Q01DX009 (ip), vehicle: water); 92 % of control (dose: 100.0 mg/kg/injection, schedule: Q04DX003 (ip), vehicle: water); 101 % of control (dose: 200.0 mg/kg/injection, schedule: Q01DX009 (ip), vehicle: water); 92 % of control (dose: 200.0 mg/kg/injection, schedule: Q04DX003 (ip), vehicle: water); 92 % of control (dose: 400.0 mg/kg/injection, schedule: Q04DX003 (ip), vehicle: water).
With `CN(C)c1ccc(/C=C2/CCCC/C2=N/O)cc1`, the T/C is, setting by setting: under setting [21], 98 % of control; under setting [22], 92 % of control; under setting [23], 88 % of control.
On to `O=C(O)C1C2CCCCC2=C2CCCCC2C1C(=O)O` (centres undefined), for which the T/C was 90 % of control (dose: 100.0 mg/kg/injection, schedule: Q04DX002 (ip), vehicle: Klucel (hydroxypropylcellulose) (HPC)); 93 % of control under setting [18]; 98 % of control (dose: 200.0 mg/kg/injection, schedule: Q04DX002 (ip), vehicle: Klucel (hydroxypropylcellulose) (HPC)); 94 % of control under setting [19]; 93 % of control (dose: 400.0 mg/kg/injection, schedule: Q04DX002 (ip), vehicle: Klucel (hydroxypropylcellulose) (HPC)); 91 % of control under setting [20].

(Values after PubChem BioAssay AID248 (DTP/NCI, 2004).)
